Data taken from patent publication US20220313819A1, “COMBINATION THERAPY FOR THE TREATMENT OF SOLID AND HEMATOLOGICAL CANCERS” (Arch Oncology, Inc., priority 2019, published 2022).

Tests used:
MM.1S tumors [1] = test: MM.1S xenograft in NOD-SCID mice, combination with lenalidomide or pomalidomide; assay type: in vivo, mouse; conditions: for complete tumor regression: N=9/group; for tumor growth inhibition (TGI): mAb 25 mg/kg IP weekly
From the text: MM.1S human multiple myeloma cells (ATCC #CRL-2974, Manassas, Va.) were maintained in RPMI-1640 (Lonza; Walkersville, Md.) supplemented with 10% Fetal Bovine Serum (FBS; Omega Scientific; Tarzana, Calif.) and 1% Penicillin/Streptomycin (Corning, Manassas, Va.) within a 5% CO2 atmosphere. Cultures were expanded in tissue culture flasks. Female NOD-SCID (NOD.CB17-Prkdc^scid/J) mice were obtained from Jackson Laboratory (Bar Harbor, Me.) at 5-6 weeks of age. Mice were acclimated prior to handling and housed in microisolator cages (Lab Products, Seaford, Del.) under specific pathogen-free conditions. Mice were fed Teklad Global Diet® 2920x irradiated laboratory animal diet (Envigo, Formerly Harlan; Indianapolis, Ind.) and provided autoclaved water ad libitum. All procedures were carried out under Institutional Animal Care and Use guidelines.
Female NOD-SCID mice were inoculated subcutaneously in the right flank with 0.1 mL of a 50% RPMI-1640/50% Matrigel™ (BD Biosciences; Bedford, Mass.) mixture containing a suspension of 5×10^6 MM.1S tumor cells. When tumors reached volumes of approximately 50-100 mm^3, mice were randomized. The test articles, human IgG2 (hIgG2), anti-CD47 mAb (VLX9hum_06 IgG2) were administered by intraperitoneal (IP) injection and lenalidomide or pomalidomide (LC Labs, Woburn, Mass.) were administered by oral gavage (PO). hIgG2 (25 mg/kg) or an anti-CD47 mAb VLX9hum_06 IgG2 (25 mg/kg) were administered weekly for 5 weeks, while lenalidomide (25 mg/kg) or pomalidomide (10 mg/kg) were administered on 4 successive days, with 3 days off, weekly for 5 weeks.
Mean tumor growth inhibition (TGI) was calculated at Day 24 (the final day all mice were on study) utilizing the following formula.
All statistical analyses in the xenograft study were performed with Prism GraphPad® software. Differences in Day 24 tumor volumes were confirmed using a two-way ANOVA, unpaired, parametric with the Tukey's Multiple Comparison test with Welch's correction.

MM.1S tumors [2] = test: MM.1S multiple myeloma xenograft, combination with daratumumab; assay type: in vivo, mouse
Procedure: The anti-tumor properties of a humanized anti-CD47 antibody (VLX9hum_06 IgG2) and in combination with anti-CD38 monoclonal antibody daratumumab which reduce tumor burden in a xenograft MM.1S multiple myeloma NSG mouse model were evaluated MM.1S human multiple myeloma cells (ATCC #CRL-2974, Manassas, Va.) were maintained in RPMI-1640 (Lonza; Walkersville, Md.) supplemented with 10% Fetal Bovine Serum (FBS; Omega Scientific; Tarzana, Calif.) and 1% Penicillin/Streptomycin (Corning, Manassas, Va.) within a 5% CO2 atmosphere. Cultures were expanded in tissue culture flasks.
(§1) Female NSG (NOD-Cg-Prkdc^scidI12rg^tm1Wjl/SzJ) were obtained from Jackson Laboratory (Bar Harbor, Me.) at 5-6 weeks of age. Mice were acclimated prior to handling and housed in microisolator cages (Lab Products, Seaford, Del.) under specific pathogen-free conditions. Mice were fed Teklad Global Diet® 2920x irradiated laboratory animal diet (Envigo, Formerly Harlan; Indianapolis, Ind.) and provided autoclaved water ad libitum. All procedures were carried out under Institutional Animal Care and Use guidelines.
Female NSG mice were inoculated subcutaneously in the right flank with 0.1 mL of a 30% RPMI/70% Matrigel™ (BD Biosciences; Bedford, Mass.) mixture containing a suspension of 5×10^6 MM.1S tumor cells. […]
Mean tumor growth inhibition (TGI) was calculated at Day 20 utilizing the following formula. […]

RPMI-8226 tumors = test: RPMI-8226 multiple myeloma xenograft in NSG mice; assay type: in vivo, mouse
From the text: RPMI-8226 human multiple myeloma cells (ATCC #CCL-155, Manassas, Va.) were maintained in RPMI-1640 (Lonza; Walkersville, Md.) supplemented with 10% Fetal Bovine Serum (FBS; Omega Scientific; Tarzana, Calif.) and 1% Penicillin/Streptomycin (Corning, Manassas, Va.) within a 5% CO2 atmosphere. Cultures were expanded in tissue culture flasks.
as §1
Female NSG mice were inoculated subcutaneously in the right flank with 0.1 mL of a 30% RPMI/70% Matrigel™ (BD Biosciences; Bedford, Mass.) mixture containing a suspension of 1×10^7 RPMI-8226 tumor cells.
(§2) The mean TS of each group was calculated and reported.
Differences in Day 48 tumor volumes were confirmed using a one-way ANOVA, unpaired, parametric with the Tukey's Multiple Comparison test with Welch's correction. […]

MM.1S tumors [3] = test: MM.1S multiple myeloma xenograft, combination with bortezomib; assay type: in vivo, mouse
From the text: MM.1S human multiple myeloma cells (ATCC #CRL-2974, Manassas, Va.) were maintained in RPMI-1640 (Lonza; Walkersville, Md.) supplemented with 10% Fetal Bovine Serum (FBS; Omega Scientific; Tarzana, Calif.) and 1% Penicillin/Streptomycin (Corning, Manassas, Va.) within a 5% CO2 atmosphere. Cultures were expanded in tissue culture flasks.
as §1, §2
All statistical analyses in the xenograft study were performed with Prism GraphPad® software.

SNU-1 tumors = test: SNU-1 gastric carcinoma xenograft in NSG mice; assay type: in vivo, mouse; conditions: antibody 25 mg/kg IP Q7D×5, cisplatin 3 mg/kg Q7D×4
Procedure: Female NSG mice (NOD-Cg-PrkdcscidI12rgtm1Wjl/SzJ, Jackson Laboratories) were inoculated subcutaneously in the right flank with 0.1 mL of a 30% RPMI/70% Matrigel™ (BD Biosciences; Bedford, Mass.) mixture containing a suspension of 5×10^6 SNU-1 gastric carcinoma cells (ATCC). Eight days following inoculation, digital calipers were used to measure width and length diameters of the tumor. Tumor volumes were calculated utilizing the formula: tumor volume (mm^3)=(a×b^2/2) where ‘b’ is the smallest diameter and ‘a’ is the largest diameter. Mice with palpable tumor volumes of 50-100 mm^3 were randomized into 10 mice/group and administered anti-CD47 mAb VLX9hum_06 IgG2, cisplatin, control IgG2, or a combination of anti-CD47 mAb VLX9hum_06 IgG2 with cisplatin. Mice were treated with 25 mg/kg of antibody once a week for 5 weeks (Q7D×5) by intraperitoneal injection (IP) and/or with 3 mg/kg of cisplatin once weekly for 4 weeks (Q7D×4). Tumor volumes and body weights were recorded twice weekly.
Mean tumor growth inhibition (TGI) was calculated utilizing the following formula.
Significant differences in tumor volume were confirmed using a two-way ANOVA, unpaired, parametric with the Tukey's Multiple Comparison test.

OV90 tumors = test: OV90 ovarian carcinoma xenograft in NSG mice; assay type: in vivo, mouse; conditions: OV90, Day 52; antibody 10 mg/kg IP QD5×6, cisplatin 5 mg/kg, paclitaxel 20 mg/kg
Procedure: Female NSG mice (NOD-Cg-PrkdcscidI12rgtm1Wjl/SzJ, Jackson Laboratories) were inoculated subcutaneously in the right flank with 0.1 mL of a 30% RPMI/70% Matrigel™ (BD Biosciences; Bedford, Mass.) mixture containing a suspension of 5×10^6 OV90 ovarian carcinoma cells (ATCC). Digital calipers were used to measure width and length diameters of the tumor. Tumor volumes were calculated utilizing the formula: tumor volume (mm^3)=(a×b^2/2) where ‘b’ is the smallest diameter and ‘a’ is the largest diameter. Mice with palpable tumor volumes of 50-100 mm^3 were randomized into 10 mice/group. […] Tumor volumes and body weights were recorded twice weekly.

Jurkat T ALL cell line = test: ATP release; assay type: cell-based, human; conditions: mAb 10 μg/ml or mitoxantrone 1 μM, 24 hours
Procedure: Release of ATP from the tumor cell is determined by quantitative bioluminescence assay as described by the manufacturer (Molecular Probes; Catalogue #A22066).
The humanized antibodies (VLX4hum_01 IgG4PE, VLX4hum_07 IgG4PE, VLX8hum_11 IgG4PE, VLX9hum_06 IgG2, VLX9hum_08 IgG2 and VLX9hum_03) as disclosed herein, purified from transient transfections in CHO cells as described above, as well as the control chimeric antibody, were added at a final concentration of 10 μg/ml. As a positive control for ATP release, cells were treated with 1 μM of chemotherapeutic anthracycline mitoxantrone. The cells were incubated at 37° C. for 24 hours, after which the cell-free supernatant was collected and stored at −80° C. After all samples have been collected, 10 μl of each sample was tested by the ATP determination kit as described above. […] Results are presented as means SEM and analyzed for statistical significance using ANOVA in GraphPad Prism 6.

`Nc1cccc2c1CN(C1CCC(=O)NC1=O)C2=O` (centres unmarked) [lenalidomide] was tested, and the complete tumor regression (MM.1S tumors [1]; FIG. 91A) was “no tumor regressions” and the “tumor growth inhibition (TGI)” value (MM.1S tumors [1]; day 24, FIG. 91A, lenalidomide 25 mg/kg PO) was 48%.

“daratumumab: anti-CD38 monoclonal antibody” was tested, and the median survival (MM.1S tumors [2]) was 29 days and the “tumor growth inhibition (TGI)” value (MM.1S tumors [2]; Day 20, mAb 25 mg/kg weekly, daratumumab 15 mg/kg twice weekly) was 54%.

For `CC(C)C[C@H](NC(=O)[C@H](Cc1ccccc1)NC(=O)c1cnccn1)B(O)O` [bortezomib], the median survival (RPMI-8226 tumors; RPMI-8226, 1 mg/kg) was 78 days, the “tumor growth inhibition (TGI)” value (RPMI-8226 tumors; RPMI-8226, Day 48, 1 mg/kg IV Day 1, 4, 12) was 96% and the median survival (MM.1S tumors [3]) was 35 days. For the same compound, the “tumor growth inhibition (TGI)” value (MM.1S tumors [3]; Day 20, mAb 25 mg/kg IP weekly, bortezomib 0.75 then 0.5 mg/kg IV) was 91.8%.

With `N.N.[Cl][Pt][Cl]` [cisplatin] the “tumor growth inhibition (TGI)” value (SNU-1 tumors) was 39.7% and the “tumor growth inhibition (TGI)” value (OV90 tumors) was 53.1%.

`Nc1cccc2c1C(=O)N(C1CCC(=O)NC1=O)C2=O` (centres unmarked) [pomalidomide] was tested, and the complete tumor regression (MM.1S tumors [1]; FIG. 91B) was “no tumor regressions” and the “tumor growth inhibition (TGI)” value (MM.1S tumors [1]; day 24, FIG. 91B, pomalidomide 10 mg/kg PO) was 23%.

In the case of `CC(=O)O[C@H]1C(=O)[C@@]2(C)[C@H]([C@H](OC(=O)c3ccccc3)[C@]3(O)C[C@H](OC(=O)[C@H](O)[C@@H](NC(=O)c4ccccc4)c4ccccc4)C(C)=C1C3(C)C)[C@]1(OC(C)=O)CO[C@@H]1C[C@@H]2O` [paclitaxel], the “tumor growth inhibition (TGI)” value (OV90 tumors) is reported as 32.1%.

For `O=C1c2c(O)ccc(O)c2C(=O)c2c(NCCNCCO)ccc(NCCNCCO)c21` [mitoxantrone], the “amount of released ATP” value (Jurkat T ALL cell line) was “did not (ns)”.
